According to US20240317721A1, “PYRAZOLYL DERIVATIVES AS INHIBITORS OF THE KRAS MUTANT PROTEIN” (NOVARTIS AG, priority 2021, published 2024):

Each compound was assayed against KRasG12C (M1-K169, biotinylated on the N-terminus) (Homo sapiens (Human), UniProt P01116, G12C) (assay: Covalent competition assay: scintillation proximity assay (SPA) quantifying covalent modification of KRASG12C). Details: competition with radiolabeled covalent probe (Compound B/Compound A), 2 hours incubation, 10 nM KRasG12C.
Assay type: binding
Summary of the method: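 Test compounds compete with a radiolabeled covalent probe for modification of N-terminally biotinylated KRasG12C(M1-K169):GDP, final 10 nM protein, 25 nM radio-ligand, 475 nM unlabelled ligand, 2 h with agitation in 20 mM Tris-HCl pH 7.5, 150 mM NaCl, 0.1 mM MgCl2, 0.01% Tween-20.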
Compound C=CC(=O)N1CC2(CC(n3nc(N4CC[C@H](N(C)C(C)=O)CC4(C)C)c(-c4c(Cl)c(C)cc5[nH]ncc45)c3C)C2)C1 (single isomer, unassigned) [Example 70a] has an IC50 of 287 nM. For C=CC(=O)N1CC2(CC(n3nc(N4CC[C@H](N(C)C(C)=O)CC4(C)C)c(-c4c(Cl)c(C)cc5[nH]ncc45)c3C)C2)C1 (single isomer, unassigned) [Example 70b], the IC50 was 1000 nM. Work on C=CC(=O)N1CC2(CC(n3nc(N4CCN(CCOC)CC45CCC5)c(-c4c(Cl)c(C)cc5[nH]ncc45)c3C)C2)C1 (single isomer, unassigned) [Example 71a, 1-(6-(4-(5-chloro-6-methyl-1H-indazol-4-yl)-3-(8-(2-methoxyethyl)-5,8-diazaspiro[3.5]nonan-5-yl)-5-methyl-1H-pyrazol-1-yl)-2-azaspiro[3.3]heptan-2-yl)prop-2-en-1-one] yielded an IC50 of 1200 nM. With C=CC(=O)N1CC2(CC(n3nc(N4CCN(CCOC)CC45CCC5)c(-c4c(Cl)c(C)cc5[nH]ncc45)c3C)C2)C1 (single isomer, unassigned) [Example 71b, 1-(6-(4-(5-chloro-6-methyl-1H-indazol-4-yl)-3-(8-(2-methoxyethyl)-5,8-diazaspiro[3.5]nonan-5-yl)-5-methyl-1H-pyrazol-1-yl)-2-azaspiro[3.3]heptan-2-yl)prop-2-en-1-one] the IC50 was 25 nM. For C=CC(=O)N1CC2(CC(n3nc(N4CCN(C5COC5)CC45CCC5)c(-c4c(Cl)c(Cl)cc5[nH]ncc45)c3C)C2)C1 (single isomer, unassigned) [Example 72a], the IC50 was 3100 nM. C=CC(=O)N1CC2(CC(n3nc(N4CCN(C5COC5)CC45CCC5)c(-c4c(Cl)c(Cl)cc5[nH]ncc45)c3C)C2)C1 (single isomer, unassigned) [Example 72b] was tested, and the IC50 was 7 nM. Compound C=CC(=O)N1CC2(CC(n3nc(N4CCN(C5COC5)CC4(C)C)c(-c4c(Cl)c(Cl)cc5[nH]ncc45)c3C)C2)C1 (single isomer, unassigned) [Example 73a, 1-(6-(4-(5,6-dichloro-1H-indazol-4-yl)-3-(2,2-dimethyl-4-(oxetan-3-yl)piperazin-1-yl)-5-methyl-1H-pyrazol-1-yl)-2-azaspiro[3.3]heptan-2-yl)prop-2-en-1-one] has an IC50 of over 5000 nM. C=CC(=O)N1CC2(CC(n3nc(N4CCN(C5COC5)CC4(C)C)c(-c4c(Cl)c(Cl)cc5[nH]ncc45)c3C)C2)C1 (single isomer, unassigned) [Example 73b, 1-(6-(4-(5,6-dichloro-1H-indazol-4-yl)-3-(2,2-dimethyl-4-(oxetan-3-yl)piperazin-1-yl)-5-methyl-1H-pyrazol-1-yl)-2-azaspiro[3.3]heptan-2-yl)prop-2-en-1-one] gave an IC50 of 15 nM. C=CC(=O)N1CC2(CC(n3nc(N4CCC(N5C6CCC5COC6)CC4(C)C)c(-c4c(Cl)c(C)cc5[nH]ncc45)c3C)C2)C1 (single isomer, unassigned) [Example 74b] showed an IC50 of 26 nM. With C=CC(=O)N1CC2(CC(n3nc(N4CCC(N5C6CCC5COC6)CC4(C)C)c(-c4c(Cl)c(C)cc5[nH]ncc45)c3C)C2)C1 (single isomer, unassigned) [Example 75b] the IC50 was 228 nM. With C=CC(=O)N1CC2(CC(n3nc(N4CCN(CCOC)CC45CCC5)c(-c4c(Cl)c(Cl)cc5[nH]ncc45)c3C)C2)C1 (single isomer, unassigned) [Example 76a, 1-(6-(4-(5,6-dichloro-1H-indazol-4-yl)-3-(8-(2-methoxyethyl)-5,8-diazaspiro[3.5]nonan-5-yl)-5-methyl-1H-pyrazol-1-yl)-2-azaspiro[3.3]heptan-2-yl)prop-2-en-1-one] the IC50 was 351 nM. C=CC(=O)N1CC2(CC(n3nc(N4CCN(CCOC)CC45CCC5)c(-c4c(Cl)c(Cl)cc5[nH]ncc45)c3C)C2)C1 (single isomer, unassigned) [Example 76b, 1-(6-(4-(5,6-dichloro-1H-indazol-4-yl)-3-(8-(2-methoxyethyl)-5,8-diazaspiro[3.5]nonan-5-yl)-5-methyl-1H-pyrazol-1-yl)-2-azaspiro[3.3]heptan-2-yl)prop-2-en-1-one] gave an IC50 of 10 nM. With CC#CC(=O)N1CC2(CC(n3nc(N4CCN(C5COC5)CC45CCC5)c(-c4c(Cl)c(C)cc5[nH]ncc45)c3C)C2)C1 (single isomer, unassigned) [Example 78a, 1-(6-(4-(5-chloro-6-methyl-1H-indazol-4-yl)-5-methyl-3-(8-(oxetan-3-yl)-5,8-diazaspiro[3.5]nonan-5-yl)-1H-pyrazol-1-yl)-2-azaspiro[3.3]heptan-2-yl)but-2-yn-1-one] the IC50 was 1300 nM. In the case of CC#CC(=O)N1CC2(CC(n3nc(N4CCN(C5COC5)CC45CCC5)c(-c4c(Cl)c(C)cc5[nH]ncc45)c3C)C2)C1 (single isomer, unassigned) [Example 78b, 1-(6-(4-(5-chloro-6-methyl-1H-indazol-4-yl)-5-methyl-3-(8-(oxetan-3-yl)-5,8-diazaspiro[3.5]nonan-5-yl)-1H-pyrazol-1-yl)-2-azaspiro[3.3]heptan-2-yl)but-2-yn-1-one], the IC50 is reported as over 5000 nM. Work on C=CC(=O)N1CC2(CC(n3nc(N4CCN(C5COC5)CC45CCC5)c(-c4c(C)c(Cl)cc5[nH]ncc45)c3C)C2)C1 (single isomer, unassigned) [Example 79a, 1-(6-(4-(6-chloro-5-methyl-1H-indazol-4-yl)-5-methyl-3-(8-(oxetan-3-yl)-5,8-diazaspiro[3.5]nonan-5-yl)-1H-pyrazol-1-yl)-2-azaspiro[3.3]heptan-2-yl)prop-2-en-1-one] yielded an IC50 of over 5000 nM. C=CC(=O)N1CC2(CC(n3nc(N4CCN(C5COC5)CC45CCC5)c(-c4c(C)c(Cl)cc5[nH]ncc45)c3C)C2)C1 (single isomer, unassigned) [Example 79b, 1-(6-(4-(6-chloro-5-methyl-1H-indazol-4-yl)-5-methyl-3-(8-(oxetan-3-yl)-5,8-diazaspiro[3.5]nonan-5-yl)-1H-pyrazol-1-yl)-2-azaspiro[3.3]heptan-2-yl)prop-2-en-1-one] was tested, and the IC50 was 18 nM. C=CC(=O)N1CC2(CC(n3nc(N4CCC(N(CCOC)CCOC)CC45CCC5)c(-c4c(Cl)c(Cl)cc5[nH]ncc45)c3C)C2)C1 (single isomer, unassigned) [Example 80a, 1-(6-(3-(8-(bis(2-methoxyethyl)amino)-5-azaspiro[3.5]nonan-5-yl)-4-(5,6-dichloro-1H-indazol-4-yl)-5-methyl-1H-pyrazol-1-yl)-2-azaspiro[3.3]heptan-2-yl)prop-2-en-1-one] gave an IC50 of over 5000 nM. With C=CC(=O)N1CC2(CC(n3nc(N4CCC(N(CCOC)CCOC)CC45CCC5)c(-c4c(Cl)c(Cl)cc5[nH]ncc45)c3C)C2)C1 (single isomer, unassigned) [Example 80b, 1-(6-(3-(8-(bis(2-methoxyethyl)amino)-5-azaspiro[3.5]nonan-5-yl)-4-(5,6-dichloro-1H-indazol-4-yl)-5-methyl-1H-pyrazol-1-yl)-2-azaspiro[3.3]heptan-2-yl)prop-2-en-1-one] the IC50 was 7 nM. Work on C=CC(=O)N1CC2(CC(n3nc(N4CCN(C[C@@H]5COCCO5)C[C@]4(C)CC)c(-c4c(Cl)cnc5[nH]ncc45)c3C)C2)C1 (single isomer, unassigned) [Example 81a] yielded an IC50 of over 5000 nM. With C=CC(=O)N1CC2(CC(n3nc(N4CCN(C[C@@H]5COCCO5)C[C@]4(C)CC)c(-c4c(Cl)cnc5[nH]ncc45)c3C)C2)C1 (single isomer, unassigned) [Example 81b] the IC50 was 585 nM. Work on C=CC(=O)N1CC2(CC(n3nc(N4CCS(=O)(=O)CC4(C)C)c(-c4c(Cl)c(C)cc5[nH]ncc45)c3C)C2)C1 (single isomer, unassigned) [Example 82a, 1-(6-(4-(5-chloro-6-methyl-1H-indazol-4-yl)-3-(3,3-dimethyl-1,1-dioxidothiomorpholino)-5-methyl-1H-pyrazol-1-yl)-2-azaspiro[3.3]heptan-2-yl)prop-2-en-1-one] yielded an IC50 of 50000 nM. Work on C=CC(=O)N1CC2(CC(n3nc(N4CCS(=O)(=O)CC4(C)C)c(-c4c(Cl)c(C)cc5[nH]ncc45)c3C)C2)C1 (single isomer, unassigned) [Example 82b, 1-(6-(4-(5-chloro-6-methyl-1H-indazol-4-yl)-3-(3,3-dimethyl-1,1-dioxidothiomorpholino)-5-methyl-1H-pyrazol-1-yl)-2-azaspiro[3.3]heptan-2-yl)prop-2-en-1-one] yielded an IC50 of 831 nM. For C=CC(=O)N1CC2(CC(n3nc(N4CCC(N5C[C@@H]6C[C@H]5CO6)CC4(C)C)c(-c4c(Cl)c(C)cc5[nH]ncc45)c3C)C2)C1 (single isomer, unassigned) [Example 83a], the IC50 was over 5000 nM. Compound C=CC(=O)N1CC2(CC(n3nc(N4CCC(N5C[C@@H]6C[C@H]5CO6)CC4(C)C)c(-c4c(Cl)c(C)cc5[nH]ncc45)c3C)C2)C1 (single isomer, unassigned) [Example 83b] has an IC50 of 26 nM. With C=CC(=O)N1CC2(CC(n3nc(N4CCC(N(C)[C@@H]5CCOC5)CC4(C)C)c(-c4c(Cl)c(C)cc5[nH]ncc45)c3C)C2)C1 (single isomer, unassigned) [Example 84a] the IC50 was over 5000 nM. For C=CC(=O)N1CC2(CC(n3nc(N4CCC(N(C)[C@@H]5CCOC5)CC4(C)C)c(-c4c(Cl)c(C)cc5[nH]ncc45)c3C)C2)C1 (single isomer, unassigned) [Example 84b], the IC50 was 14 nM. C=CC(=O)N1CC2(CC(n3nc(N4CCN(C[C@@H]5COCCO5)C[C@]4(C)CCOC)c(-c4c(Cl)c(C)cc5[nH]ncc45)c3C)C2)C1 (single isomer, unassigned) [Example 85a] showed an IC50 of 5000 nM. C=CC(=O)N1CC2(CC(n3nc(N4CCN(C[C@@H]5COCCO5)C[C@]4(C)CCOC)c(-c4c(Cl)c(C)cc5[nH]ncc45)c3C)C2)C1 (single isomer, unassigned) [Example 85b] showed an IC50 of 8 nM. For C=CC(=O)N1CC2(CC(n3nc(N4CCN(C5COC5)C[C@]4(C)CCOC)c(-c4c(Cl)c(C)cc5[nH]ncc45)c3C)C2)C1 (single isomer, unassigned) [Example 86a], the IC50 was 2300 nM. C=CC(=O)N1CC2(CC(n3nc(N4CCN(C5COC5)C[C@]4(C)CCOC)c(-c4c(Cl)c(C)cc5[nH]ncc45)c3C)C2)C1 (single isomer, unassigned) [Example 86b] gave an IC50 of 8 nM.
